Patent US20070179143A1 (priority 2003, published 2007)

Experiments:
SK-MEL-2 = test: Cytotoxicity test to cancer cell lines (SRB method), SK-MEL-2; type: cell-based; conditions: Homo sapiens, SK-MEL-2, 48 h, read-out: Cytotoxicity ED50 SK-MEL-2
SK-OV-3 = test: Cytotoxicity test to cancer cell lines (SRB method), SK-OV-3; type: cell-based; conditions: Homo sapiens, SK-OV-3, 48 h, read-out: Cytotoxicity ED50 SK-OV-3
in vivo = conditions: ICR, mouse, in vivo
Procedure: (§1) 5-week-old ICR mice having the weight of 25-35 g (SPF, SLC Co. Japan) were used as test animals. A pair of female and male of the mice was given for the test of each compound. Group T2, T3, T4 and T5 were arranged (10 animals per group) for the test of acute toxicity of the compound prepared in the Example 12. […] Control group (T1) was administered with only a solvent without the compound of the Example 12.
(§2) For comparison, colchicine was injected in the test animals by the same method as described in the above. The group treated with colchicine was composed of 6 mice.
(§3) Taxol produced by Bristol Myers Sqibb Co. was also used for comparison, and the injection and the test of acute toxicity were performed by the same method as described in the above.

ICR mice = test: in vivo; conditions: for Death Total: ICR mice, 7 days, deaths/animals; for Test Day (Death) 2: deaths on day 2; for Test Day (Death) 5: deaths on day 5; for Test Day (Death) 1: deaths on day 1
Procedure: as §1, §2, §3

HCT-15 = test: Cytotoxicity test to cancer cell lines (SRB method), HCT-15; conditions: Homo sapiens, HCT-15, 48 h, read-out: Cytotoxicity ED50 HCT15
A549 = test: Cytotoxicity test to cancer cell lines (SRB method), A549; conditions: Homo sapiens, A549, 48 h, read-out: Cytotoxicity ED50 A549
Procedure: Cytotoxicity to A549 (Korea Research Institute of Chemical Technology), SK-OV-3 (Korea Research Institute of Chemical Technology), SK-MEL-2 (Korea Research Institute of Chemical Technology), HCT-15 (Korea Research Institute of Chemical Technology) and MCF7 (Korean Cell Line Bank, Seoul National University School of medicine) cells was measured by Sulforhodamin-B (SRB) method (1989, National Cancer Institute (NCI)) which was developed for the measurement of in vitro anticancer activity of a drug. Cells were separated using 0.25% trypsin-EDTA solution, leading to the preparation of a cell suspension by 5×10^318 2×10^4 cells/well. Then, the suspension was distributed into a 96 well plate by 100 μl/well, which was cultured in a 37° C., 5% CO2 incubator for 24 hours. Compounds prepared in examples of the present invention were used as a sample. Precisely, the compound was dissolved in dimethylsulfoxide and diluted with RPMI 1640 medium before being used as a sample. The final concentration of the sample used varied ranging 1 μM˜0.00001 μM. The medium was removed from the 96 well plate and then diluted sample solution was added by 100 μl/well, followed by further culture in a 37° C., 5% CO2 incubator for 48 hours. Tz (time zero) plate was collected from the point of adding the sample. Upon completing the culture, the medium was removed from each well along with Tz plate, then 10% trichloroacetic acid (TCA) was added by 100 μl/well. The plate was left at 4° C. for 1 hour to let cells be fixed on the floor of the plate. After cells were fixed completely, the plate was washed with water 5-6 times to remove the remaining trichloroacetic acid solution completely and moisture was completely dried at room temperature. 0.4% Sulforhodamine-B was dissolved in 1% acetic acid solution to prepare a staining solution. Cells were stained for 30 minutes with a dye added by 100 μl to each well of the completely dried plate. Then, the plate was washed with 1% acetic acid solution 5-6 times to remove sulforhodamine-B remained uncombined with cells. Then, the plate was dried at room temperature. 10 mM Tris solution was added by 100 μ/well thereto to dissolve the dye, and optical density (OD) was measured at 520 nm with a micro plate reader.
ED50 (concentration that inhibits cancer cell growth 50%, 5.0% effective dose, nM/ml) of the sample to cancer cell was calculated as follows. OD value at the point of beginning the culture with the sample was determined as Tz (time zero) value. OD value of a well to be cultured without the sample was determined as a control value (C). OD value of a well pretreated with the sample was determined as experimental value (T). After calculating Tz, C and T, cytotoxicity of the sample was measured by the below <Mathematical Formula 1>. T≦Tz, (T−Tz)/(C−Tz)×100 T>Tz, (T−Tz)/Tz×10,0 <Mathematical Formula 1>
ED50, the concentration that can inhibit cancer cell growth by 50%, was calculated by using a regression analysis of lotus program based on the degree of cytotoxicity obtained by the <Mathematical Formula 1>.

[1] = tested on: human lung cancer cell line NCI-H460; test: Inhibiting effect on tumor growth, NCI-H460 xenografted nude mice
Procedure: Samples for the experiment were stored in a refrigerator all the time. […] The prepared sample is subject to be precipitated, so that tip sonication was performed right before the administration to disperse it well.
7 week-old female S.P.F. BALB/c nude mice, provided by Charles River Co., Japan, were used as test animals. The test animals were adapted in a Hepa-filter room over a week before the test. The temperature was 21±2° C., humidity was 55±5% and 12-hour light and dark cycle was automatically repeated in that lab. Solid feed (Cheiluedang) was sterilized by radioactive rays and drinking water was also sterilized by autoclave. Feed and water were taken by the animal freely. Cancer cell line used in this experiment was NCI-H460 (human lung tumor cell line) provided by Korea Research Institute of Bioscience and Biotechnology.
The tumor cell line, stored in liquid nitrogen, was thawed and cultured in a 37° C., 5% CO2 incubator for a required time. Upon completing the culture, all the cells were recovered and cell concentration of the culture fluid was adjusted using PBS to 3×10^7 cells/ml. The adjusted cell culture solution was injected hypodermically into armpit between right shoulder girdle and chest wall by 0.3 ml per mouse. From the next day of grafting, NCI-H460 xenografted nude mice were administered intraperitoneal everyday with the sample solution by 0.2 ml/20 g of weight, once a day.
After the grafting of tumor cells, the volume of a tumor in each individual was measured in three dimensions by using a vernier caliper, which was represented in the below <Mathematical Formula 2>. Tumor volume=(length×width×height)/2 <Mathematical Formula 2>
Body weight changes of animal were measured three times a week. Each xenografted nude mouse was sacrificed to separate a tumor, which was then weighed.

HUVEC cells = test: Capillary-like tube formation assay; type: cell-based; conditions: HUVEC on matrigel, 24 hours
Procedure: Matrigel used in this experiment was a product of BioCoat. Matrigel was thawed in a refrigerator for 24 hours before use. Thawing matrigel, 96 well plate and yellow tip were put on ice. Then, matrigel was distributed into each well of the plate by 40 μl. The polymerization of the plate was performed in a 37° C. incubator for 30 minutes. Each well of the plate was inoculated with 180 μl of HUVEC cell solution (2×10^4 cells/m;) along with 20 μl of the compound of the Example 12 in serum-free media (0.3, 1,3, 10 and 30 μg/ml), followed by further culture for 24 hours.
Tube formation was observed under a microscope to investigate inhibition activity of angiogenesis.
Fumagilin and doxorubicin were used as a positive control.

MCF7 = test: Cytotoxicity test to cancer cell lines (SRB method), MCF7; conditions: read-out: Cytotoxicity ED50 MCF-7, MCF-7, 48 hours
[2] = Body weight change of NCI-H460 xenografted nude mice; type: in vivo, BALB/c nude mouse
[3] = 1 mg/kg intraperitoneal once a day
[4] = 3 mg/kg intraperitoneal once a day
[5] = 10 mg/kg intraperitoneal once a day
[6] = 2.5 mg/kg intraperitoneal once a day

COc1cc2c(c(OC)c1OC)-c1ccc(OC)c(=O)cc1[C@@H](NC(C)=O)CC2 [Colchicine]
EC50 (SK-MEL-2): 6 nM
EC50 (SK-OV-3): 18 nM
LD50 at 7 days (in vivo; both): 2 mg/kg
Death Total (ICR mice; 0.5 mg/kg): 0/6
Death Total (ICR mice; 1.0 mg/kg): 0/6
Death Total (ICR mice; 2.0 mg/kg): 3/6
Test Day (Death) 3 (ICR mice; 2.0 mg/kg, deaths on day 3): 1
Test Day (Death) 6 (ICR mice; 2.0 mg/kg, deaths on day 6): 2
Death Total (ICR mice; 5.0 mg/kg): 5/5
Test Day (Death) 2 (ICR mice; 5.0 mg/kg): 3
Test Day (Death) 4 (ICR mice; 5.0 mg/kg, deaths on day 4): 1
Test Day (Death) 5 (ICR mice; 5.0 mg/kg): 1
EC50 (HCT-15): 9 nM
EC50 (A549): 21 nM

COc1cc2c(c(OC)c1OC)-c1ccc(SC)c(=O)cc1[C@@H](NC(=O)c1cc(F)cc(CO[N+](=O)[O-])c1)CC2 [Example 12, 3-fluoro-5-nitrooxymethyl-N-[(7S)-1,2,3-trimethoxy-10-methylsulfanyl-9-oxo-5,6,7,9-tetrahydro-benzo[a]heptalen-7-yl]-benzamide]
Tumor volume Day 0 [1, 3]: 0.0 ± 0.0
Tumor volume Day 4 [1, 3]: 20.7 ± 3.1
Tumor volume Day 7 [1, 3]: 49.2 ± 12.2
Tumor volume Day 9 [1, 3]: 78.1 ± 13.0
Tumor volume Day 11 [1, 3]: 146.5 ± 8.8
Tumor Weight Day 14 [1, 3]: 950.9 ± 174.8 mg
Tumor volume Day 14 [1, 3]: 299.3 ± 41.5
Tumor volume Day 0 [1, 4]: 0.0 ± 0.0
Tumor volume Day 4 [1, 4]: 16.9 ± 5.1
Tumor volume Day 7 [1, 4]: 31.2 ± 11.7
Tumor volume Day 9 [1, 4]: 49.7 ± 15.8
Tumor volume Day 11 [1, 4]: 96.1 ± 26.1
Tumor Weight Day 14 [1, 4]: 714.5 ± 103.8 mg
Tumor volume Day 14 [1, 4]: 206.8 ± 48.0
Tumor volume Day 0 [1, 5]: 0.0 ± 0.0
Tumor volume Day 4 [1, 5]: 16.1 ± 6.7
Tumor volume Day 7 [1, 5]: 24.6 ± 9.8
Tumor volume Day 9 [1, 5]: 35.2 ± 12.9
Tumor volume Day 11 [1, 5]: 69.4 ± 26.9
Tumor Weight Day 14 [1, 5]: 390.9 ± 0 mg
Tumor volume Day 14 [1, 5]: 103.0 ± 0
size and weight of a tumor (in words) ([1]; comparing to solvent only (V.C-1, V.C-2) or positive control (taxol, adriamycin)): remarkably decreased
EC50 (SK-MEL-2): 0.11 nM
dosage that totally inhibited angiogenesis (HUVEC cells): over 10 μg/ml
dosage with angiogenesis inhibition activity (HUVEC cells; as good effect as fumagilin at 10 μg/ml): over 0.3 μg/ml
EC50 (SK-OV-3): 0.27 nM
LD50 (in vivo; both): 60 mg/kg
Death Total (ICR mice; 30 mg/kg into the abdominal cavity): 0/10
Death Total (ICR mice; 40 mg/kg into the abdominal cavity): 0/10
Death Total (ICR mice; 50 mg/kg into the abdominal cavity): 0/10
Death Total (ICR mice; 60 mg/kg into the abdominal cavity): 0/10
times as weak toxicity as that of colchicine (ICR mice; ratio of LD50): 30 times
EC50 (MCF7): 0.03 nM
Body weight Change Day 1 [2, 3]: 100.0 ± 0.0%
Body weight Change Day 3 [2, 3]: 105.0 ± 1.4%
Body weight Change Day 7 [2, 3]: 104.2 ± 5.3%
Body weight Change Day 9 [2, 3]: 99.6 ± 4.4 %
Body weight Change Day 11 [2, 3]: 97.5 ± 3.6 %
Body weight Change Day 14 [2, 3]: 98.3 ± 3.2 %
Body weight Change Day 1 [2, 4]: 100.0 ± 0.0%
Body weight Change Day 3 [2, 4]: 102.8 ± 2.0%
Body weight Change Day 7 [2, 4]: 101.8 ± 4.2 %
Body weight Change Day 9 [2, 4]: 99.3 ± 3.3 %
Body weight Change Day 11 [2, 4]: 99.1 ± 2.8 %
Body weight Change Day 14 [2, 4]: 94.5 ± 3.9 %
Body weight Change Day 1 [2, 5]: 100.0 ± 0.0%
Body weight Change Day 3 [2, 5]: 103.9 ± 0.9%
Body weight Change Day 7 [2, 5]: 92.2 ± 3.5 %
Body weight Change Day 9 [2, 5]: 89.4 ± 2.0 %
Body weight Change Day 11 [2, 5]: 92.3 ± 2.9 %
Body weight Change Day 14 [2, 5]: 93.4 ± 0%
decrease of the weight of the mouse ([2]; comparing to solvent only or positive control): about 10%
EC50 (HCT-15): 0.05 nM
EC50 (A549): 0.05 nM

CC(=O)O[C@H]1C(=O)[C@@]2(C)[C@H]([C@H](OC(=O)c3ccccc3)[C@]3(O)C[C@H](OC(=O)[C@H](O)[C@@H](NC(=O)c4ccccc4)c4ccccc4)C(C)=C1C3(C)C)[C@]1(OC(C)=O)CO[C@@H]1C[C@@H]2O [Paclitaxel, reference compound]
EC50 (SK-MEL-2): 0.1 nM
EC50 (SK-OV-3): 1.2 nM
LD50 (in vivo; iv): 9 to 13 mg/kg
Death Total (ICR mice; 4.0 mg/kg): 0/5
Death Total (ICR mice; 6.0 mg/kg): 1/5
Test Day (Death) 2 (ICR mice; 6.0 mg/kg): 1
Death Total (ICR mice; 9.0 mg/kg): 2/5
Test Day (Death) 5 (ICR mice; 9.0 mg/kg): 2
Death Total (ICR mice; 13.0 mg/kg): 4/5
Test Day (Death) 1 (ICR mice; 13.0 mg/kg): 2
Test Day (Death) 2 (ICR mice; 13.0 mg/kg): 2
Death Total (ICR mice; 20.0 mg/kg): 5/5
Test Day (Death) 1 (ICR mice; 20.0 mg/kg): 5
EC50 (MCF7): 0.9 nM
Body weight Change Day 1 [2, 6]: 100.0 ± 0.0%
Body weight Change Day 3 [2, 6]: 106.0 ± 1.5%
Body weight Change Day 7 [2, 6]: 99.2 ± 4.0 %
Body weight Change Day 9 [2, 6]: 97.1 ± 0%
EC50 (HCT-15): 0.1 nM
EC50 (A549): 0.3 nM
